pEC50: −log10 of the molar value.
Key:
human TLR8 (hTLR8) = target: T1, human TLR8 (hTLR8) (Homo sapiens, UniProt Q9NR97); test: Human TLR8 agonist activity assay (measured in a similar manner); format: cell-based; conditions: HEK-Blue TLR cells, SEAP reporter, measured in a similar manner to TLR7; some values average of multiple measurements
T1 construct: expressed in transfected cells
T1 sequence (Q9NR97 27-1041): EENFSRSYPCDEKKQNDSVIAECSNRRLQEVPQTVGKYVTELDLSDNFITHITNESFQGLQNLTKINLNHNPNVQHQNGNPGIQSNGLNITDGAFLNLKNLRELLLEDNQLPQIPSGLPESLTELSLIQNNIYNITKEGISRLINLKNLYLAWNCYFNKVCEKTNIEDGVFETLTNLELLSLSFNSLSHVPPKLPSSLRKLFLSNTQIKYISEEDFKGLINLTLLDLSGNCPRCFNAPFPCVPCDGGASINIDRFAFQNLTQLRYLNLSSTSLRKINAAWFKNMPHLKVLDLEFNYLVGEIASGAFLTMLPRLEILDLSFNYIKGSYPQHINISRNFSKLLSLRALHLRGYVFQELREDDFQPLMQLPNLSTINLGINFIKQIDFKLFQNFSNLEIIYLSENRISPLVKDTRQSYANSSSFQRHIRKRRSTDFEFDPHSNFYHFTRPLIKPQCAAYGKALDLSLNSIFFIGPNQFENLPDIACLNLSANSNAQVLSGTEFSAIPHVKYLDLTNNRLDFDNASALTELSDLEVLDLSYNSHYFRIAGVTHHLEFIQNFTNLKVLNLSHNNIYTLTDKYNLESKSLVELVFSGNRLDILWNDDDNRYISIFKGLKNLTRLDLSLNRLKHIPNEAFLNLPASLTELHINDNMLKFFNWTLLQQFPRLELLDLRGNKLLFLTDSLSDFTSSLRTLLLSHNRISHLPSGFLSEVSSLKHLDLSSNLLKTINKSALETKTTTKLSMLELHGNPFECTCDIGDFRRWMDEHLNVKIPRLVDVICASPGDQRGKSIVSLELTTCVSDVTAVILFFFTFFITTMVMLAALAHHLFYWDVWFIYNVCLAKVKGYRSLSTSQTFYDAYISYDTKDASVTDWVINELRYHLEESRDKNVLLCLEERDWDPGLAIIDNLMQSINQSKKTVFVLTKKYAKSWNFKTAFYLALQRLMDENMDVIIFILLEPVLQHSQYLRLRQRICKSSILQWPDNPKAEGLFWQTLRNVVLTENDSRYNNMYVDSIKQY
Procedure: (§1) This procedure describes a method for assaying human TLR7 (hTLR7) and human TLR8 (hTLR8) agonist activity of the compounds disclosed herein.
HEK-Blue™ TLR7 cells were added to each well of a 384-well tissue-culture plate (15,000 cells per well) and incubated 16-18 h at 37° C., 5% CO2. Compounds (100 nL) were dispensed into wells containing the HEK-Blue™ TLR cells and the treated cells were incubated at 37° C., 5% CO2. After 18 h, ten microliters 5 of freshly prepared Quanti-Blue™ reagent (Invivogen) was added to each well and incubated for 30 min (37° C., […]). SLAP levels were measured using an Envision plate reader (OD=620 nm). […] Some of the reported activities were the average of multiple measurements.
TLR8 activity was measured in a similar manner.

human TLR7 (hTLR7) = target: T2, human TLR7 (hTLR7) (Homo sapiens, UniProt Q9NYK1); test: Human TLR7 agonist activity assay (HEK-Blue TLR7 SEAP reporter); format: cell-based; conditions: HEK-Blue TLR7 cells, 18 h incubation, Quanti-Blue, OD 620 nm, some values average of multiple measurements
T2 construct: host or cells: HEK-Blue TLR7 cells (engineered human embryonic kidney cells)
T2 sequence (Q9NYK1 27-1049): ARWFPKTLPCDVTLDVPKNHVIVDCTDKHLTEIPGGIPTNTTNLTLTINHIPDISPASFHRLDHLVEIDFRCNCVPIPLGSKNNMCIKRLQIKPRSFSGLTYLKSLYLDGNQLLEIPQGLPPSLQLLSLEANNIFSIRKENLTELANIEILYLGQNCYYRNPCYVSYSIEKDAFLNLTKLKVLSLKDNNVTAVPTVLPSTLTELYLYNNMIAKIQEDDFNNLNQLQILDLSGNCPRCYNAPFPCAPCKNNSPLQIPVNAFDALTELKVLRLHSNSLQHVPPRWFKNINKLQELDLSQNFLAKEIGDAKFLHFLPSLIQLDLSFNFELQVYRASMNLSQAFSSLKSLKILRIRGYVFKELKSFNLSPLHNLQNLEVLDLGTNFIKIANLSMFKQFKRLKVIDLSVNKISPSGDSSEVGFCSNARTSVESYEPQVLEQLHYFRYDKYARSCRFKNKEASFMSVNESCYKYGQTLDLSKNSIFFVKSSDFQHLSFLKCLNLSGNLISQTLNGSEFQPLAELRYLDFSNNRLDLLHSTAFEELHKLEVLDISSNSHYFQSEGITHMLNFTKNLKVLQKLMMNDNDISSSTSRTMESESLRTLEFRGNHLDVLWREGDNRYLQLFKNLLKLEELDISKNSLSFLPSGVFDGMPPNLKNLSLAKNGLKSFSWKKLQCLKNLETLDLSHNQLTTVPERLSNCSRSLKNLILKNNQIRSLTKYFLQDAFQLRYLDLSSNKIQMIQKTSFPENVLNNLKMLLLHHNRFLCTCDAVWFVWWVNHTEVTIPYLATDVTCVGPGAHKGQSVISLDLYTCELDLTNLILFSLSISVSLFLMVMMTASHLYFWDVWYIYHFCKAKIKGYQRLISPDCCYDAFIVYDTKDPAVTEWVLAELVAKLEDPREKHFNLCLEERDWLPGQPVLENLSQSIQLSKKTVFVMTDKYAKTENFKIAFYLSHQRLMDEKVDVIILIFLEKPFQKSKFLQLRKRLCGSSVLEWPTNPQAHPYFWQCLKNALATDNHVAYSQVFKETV
Procedure: as §1
HEK-Blue™ TLR7 cells were added to each well of a 384-well tissue-culture plate (15,000 cells per well) and incubated 16-18 h at 37° C., 5% CO2. Compounds (100 nL) were dispensed into wells containing the HEK-Blue™ TLR cells and the treated cells were incubated at 37° C., 5% CO2. After 18 h, ten microliters 5 of freshly prepared Quanti-Blue™ reagent (Invivogen) was added to each well and incubated for 30 min (37° C., […]). SLAP levels were measured using an Envision plate reader (OD=620 nm). The half maximal effective concentration values (ECSO; compound concentration which induced a response halfway between the assay baseline and maximum) were calculated. Some of the reported activities were the average of multiple measurements.

pEC50 (human TLR8 (hTLR8))	pEC50 (human TLR7 (hTLR7))	SMILES
6.72	6.25	CCCCN(CCO)c1nc(N)nc2cn(Cc3ccc(CNC4CCOC(C)C4)cc3OC)nc12 (single isomer, unassigned) [Compound 122]
5.74	6.13	CCCCN(CCO)c1nc(N)nc2cn(Cc3c(F)cc(N4CCC(NC(C)C)CC4)cc3OC)nc12 [Compound 152]
5.76	6.27	CCCCN(CCO)c1nc(N)nc2cn(Cc3c(F)cc(C4CCC(N(C)C5CC6(COC6)C5)CC4)cc3OC)nc12 (centres unmarked) [Compound 195]
6.38	6.36	CCCCN(CCO)c1nc(N)nc2cn(Cc3ccc(CN[C@H]4C[C@H](OC)C4)c4oc(C)nc34)nc12 [Compound 141, 2-((5-amino-2-((7-((((1r,3r)-3-methoxycyclobutyl)amino)methyl)-2-methylbenzo[d]oxazol-4-yl)methyl)-2H-pyrazolo[4,3-d]pyrimidin-7-yl)(butyl)amino)ethan-1-ol]
6.31	5.94	CCCCN(CCO)c1nc(N)nc2cn(Cc3ccc(CN[C@@H]4CCOC4)c4c3OCCC4)nc12 [Compound 135]
5.72	5.72	CCCCN(CCO)c1nc(N)nc2cn(Cc3ccc(CNC[C@H]4C[C@H](O)C4)cc3OC)nc12 [Compound 23]
6.20	6.16	CCCCN(CCO)c1nc(N)nc2cn(Cc3ccc(CN4CCCC4)cc3OC)nc12 [Compound 4]
6.36	6.40	CCCCN(CCO)c1nc(N)nc2cn(Cc3c(F)cc(C4CCN(C5CC6(CCC6)C5)CC4)cc3OC)nc12 [Compound 39]
5.86	5.70	CCCCCNCc1ccc(Cn2cc3nc(N)nc(N(CCO)CCCC)c3n2)c2ncccc12 [Compound 57]
6.17	6.00	CCCCN(CCO)c1nc(N)nc2cn(Cc3ccc(CNC4CCC4)c4oc(C)nc34)nc12 [Compound 140, 2-((5-Amino-2-((7-((cyclobutylamino)methyl)-2-methylbenzo[d]oxazol-4-yl)methyl)-2H-pyrazolo-[4,3-d]pyrimidin-7-yl) (butyl)amino) ethan-1-ol]
5.60	5.60	CCCCN(CCO)c1nc(N)nc2cn(Cc3ccc(CNC4CC(O)C4)cc3OC)nc12 (centres unmarked) [Compound 29]
5.71	5.79	COc1cc(CNC2CCC2)ccc1Cn1cc2nc(N)nc(N(CCO)CCCCF)c2n1 [Compound 176]
6.06	6.52	CCCCN(CCO)c1nc(N)nc2cn(Cc3ccc(CN[C@@H]4CCCN(S(C)(=O)=O)C4)c4cccnc34)nc12 [Compound 200, (R)-2-((5-Amino-2-((5-(((1-(methylsulfonyl)piperidin-3-yl)amino)methyl)quinolin-8-yl)methyl)-2H-pyrazolo[4,3-d]pyrimidin-7-yl)(butyl)amino) ethan-1-ol]
5.69	5.74	CCCCN(CCO)c1nc(N)nc2cn(Cc3c(F)cc(C4=CCNC4)cc3OC)nc12 [Compound 147]
5.83	6.02	CCCCN(CCO)c1nc(N)nc2cn(Cc3ccc(CO)n4ncnc34)nc12 [Compound 177]
5.72	5.59	CCCCN(CCO)c1nc(N)nc2cn(Cc3c(F)cc(CN[C@H]4CC[C@H](O)CC4)cc3OC)nc12 [Compound 93]

Reference: patent publication US20250282776A1, “Bicyclic TLR7 Agonists and Uses Thereof” (Bristol-Myers Squibb Company, priority 2024, published 2025)
